In patent US4521430A, “1,5-Benzothiazepin-4-one, their pharmaceutical compositoins, and methods of use” (Tanabe Seiyaku Co., Ltd., priority 1983, dated 1985):
Where a name gives a salt, the structure may show the parent alone.

Legend:
platelet aggregation = assay: Platelet aggregation-inhibiting activity, collagen, platelet-rich plasma (Experiment 4); format: cell-based, Sprague-Dawley rats; parameters: key: -: the test compound showed less than 10% inhibition of platelet aggregation; +: the test compound showed not less than 10% inhibition of platelet aggregation but said percentage inhibition was lower than that of acetylsalicylic acid (100 μg/ml); ++: the test compound showed the platelet aggregation-inhibiting activity at least as strong as that of acetylsalicylic acid (100 μg/ml); conditions: final concentration 100 μg/ml, rat PRP, 37° C., Table 3
From the text: Blood was collected from the abdominal aorta of male Sprague-Dawley rats which were anesthetized with ether. Nine volumes of said blood were mixed with one volume of an aqueous 3.8% (w/v) trisodium citrate solution, and the mixture was centrifuged to give platelet-rich plasma ("PRP") as the supernatant solution. The bottom layer was further centrifuged to give platelet-poor plasma ("PPP") as the supernatant solution. Platelet counts were adjusted to 0.8-1×10^6 /mm^3 for PRP by dilution with PPP. After a mixture of 200 μl of the diluted PRP and 25 μl of a test compound solution (final concentration: 100 μg/ml) was stirred for 2 minutes at 37° C., 25 μl of a collagen solution (Biochim. Biophys. Acta, 186, page 254(1969)) were added thereto. The degree of platelet aggregation was estimated by Born's method (Nature, 194, page 927(1962)) and percentage inhibition of platelet aggregation was calculated therefrom.

[1] = test system: coronary blood flow of the isolated heart; assay: Coronary vasodilating activity: Langendorff's method, coronary blood flow of isolated heart (Experiment 3); parameters: species or system guinea pig; conditions: for Coronary vasodilating activity (class): isolated guinea pig heart, Langendorff, Table 2
Description: (§1) For example, when the cerebral vasodilating activity is evaluated by examining vertebral artery blood flow in anesthetized dogs to which a test compound is intraarterially administered, said activity of (+)-cis-2-(4-methoxyphenyl)-3-(2-chloro-4-nitrobenzoyloxy)-5-[2-(dimethylamino)ethyl]-2,3-dihydro-1,5-benzothiazepin-4-(5H)-one fumarate is 4.5 times stronger than that of papaverine. On the other hand, the coronary vasodilating activity of (+)-cis-2-(4-methoxyphenyl)-3-(2-chloro-4-nitrobenzoyloxy)-5-[2-(dimethylamino)ethyl]-2,3-dihydro-1,5-benzothiazepin-4(5H)-one fumarate when examined by the Langendorff method using isolated hearts of guinea pigs is 10 times stronger than that of papaverine.
Langendorff's method was used for testing the effect on the coronary blood flow of the isolated heart of guinea pig (about 280 g). The isolated heart was perfused with Locke-Ringer solution containing 2% of defibrinated rabbit blood, which had been saturated with a mixed gas of 95% O2 and 5% CO2 (30° C.). Perfusion pressure was kept at 40 cm H2 O. A solution of a test compound in an aqueous 5% glucose solution was injected into the perfusing solution at a volume of 0.1 ml per heart. The outflow of the perfusate was measured by means of a drop counter.
The coronary vasodilating activity of the test compound was expressed as "±" if the increase in coronary blood flow is less than 0.5 ml/minute at a dose of 100 μg/heart; "+" if the increase is not less than 0.5 ml/minute at a dose of 100 μg/heart; "++" if the increase is not less than 0.5 ml/minute at a dose of 30 μg/heart; and "+++" if the increase is not less than 0.5 ml/minute at a dose of not more than 10 μg/heart.

[2] = test system: cerebral and/or coronary vasodilating activity; conditions: Japanese Patent Publication Nos. 43784/1971 and 8544/1972; cited from earlier work
calmodulin = calmodulin (Homo sapiens, UniProt P0DP23); assay: Anti-calmodulin activity: activation of phosphodiesterase activity by calmodulin (Experiment 5); format: biochemical; conditions: pH 7.5, 30° C.; Table 4; read-out: ID50 (concentration for 50% inhibition of the activation of phosphodiesterase activity by calmodulin)
[3] = test system: vertebral artery blood flow; assay: Cerebral vasodilating activity: vertebral artery blood flow in anesthetized dogs, injection into vertebral artery (Experiment 1); format: in vivo; conditions: for Cerebral vasodilating activity (potency ratio to papaverin, class): anesthetized male dogs, injected into vertebral artery, Table 1
Description: as §1
(§2) (Cerebral vasodilating activity)
Male dogs weighing 10 to 20 kg were anesthetized with sodium pentobarbital (30 mg/kg, intravenous injection). The blood flow in vertebral artery was measured continuously by means of an electromagnetic flowmeter under artificial respiration. A test compound dissolved in an aqueous 5% glucose solution was injected into vertebral artery. The cerebral vasodilating activity of the test compound was estimated in terms of "the potency ratio of said compound to papaverin" which was calculated from the dose-responsecurves thereof.

vertebral blood flow = assay: Cerebral vasodilating activity: total increase in vertebral blood flow in anesthetized dogs, intravenous (Experiment 2); format: in vivo; conditions: anesthetized male dogs, 0.2 mg/kg intravenously; increase at peak response x half duration time
Description: as §2
Male dogs weighing 11 to 16 kg (one group: 3 dogs) were anesthetized with sodium pentobarbital (30 mg/kg, intravenous injection). The vertebral blood flow was measured by means of an electromagnetic flowmeter under artificial respiration. A test compound dissolved in an aqueous 5% glucose solution was injected intravenously at a dose of 0.2 mg/kg. The cerebral vasodilating activity of the test compound was estimated in terms of "total increase in vertebral blood flow" which was calculated by multiplying "increase (Δml/minute) in blood flow at peak response" by "half duration time (T 1/2:minute)".

[4] = test system: atrioventricular conduction; assay: Atrioventricular conduction in anesthetized guinea pigs, intravenous; format: in vivo; conditions: 3 mg/kg intravenously
cerebral ischemia = assay: Protective effect on cerebral ischemia: recovery of electrocorticogram activity after occlusion of common carotid and vertebral artery; format: in vivo; conditions: rats, 0.1 mg/kg/minute intravenously, within one hour after reestablishment of cerebral blood flow
Acute toxicity, oral = conditions: mouse, in vivo, mice, orally
From the text: The compound (I) is further characteristic in that said compound is low in toxicity. For example, the acute toxicity (LD50) of (+)-cis-2-(4-methoxyphenyl)-3-(2-chloro-4-nitrobenzoyloxy)-5-[2-(dimethylamino)ethyl]-2,3-dihydro-1,5-benzothiazepin-4(5H)-one fumarate, when administered to mice orally, is more than 2 g/kg.

[5] = test system: atrioventricular conduction; conditions: known calcium-antagonistic vasodilator; cited from earlier work

IC50 (calmodulin)	Structure (SMILES)	Platelet aggregation-inhibiting activity (class) (platelet aggregation)	Coronary vasodilating activity (class) [1]	Cerebral vasodilating activity (potency ratio to papaverin, class) [3]	further results
–	COc1ccc([C@@H]2Sc3ccccc3N(CCN(C)C)C(=O)[C@@H]2OC(=O)c2ccccc2[N+](=O)[O-])cc1.Cl (racemic) [(±)-cis-2-(4-methoxyphenyl)-3-(2-nitrobenzoyloxy)-5-[2-(dimethylamino)ethyl]-2,3-dihydro-1,5-benzothiazepin-4(5H)-one hydrochloride]	++	–	–	–
–	COc1ccc([C@@H]2Sc3ccccc3N(CCN(C)C)C(=O)[C@@H]2OC(=O)c2ccc([N+](=O)[O-])cc2)cc1.O=C(O)/C=C\C(=O)O (racemic) [(±)-cis-2-(4-methoxyphenyl)-3-(4-nitrobenzoyloxy)-5-[2-(dimethylamino)ethyl]-2,3-dihydro-1,5-benzothiazepin-4(5H)-one maleate]	–	+++ (the increase is not less than 0.5 ml/minute at a dose of not more than 10 μg/heart)	–	–
–	COc1ccc(C2Sc3ccccc3N(CCN(C)C)C(=O)C2OC(=O)c2ccccc2)cc1 (stereo not shown) [2-(4-methoxyphenyl)-3-benzoyloxy-5-[2-(dimethylamino)ethyl]-2,3-dihydro-1,5-benzothiazepin-4(5H)-one]	–	–	–	coronary vasodilating activity (known) [2]: have a coronary vasodilating activity
–	COc1ccc(C2Sc3ccccc3N(CCN(C)C)C(=O)C2OCc2ccccc2)cc1 (stereo not shown) [2-(4-methoxyphenyl)-3-benzyloxy-5-[2-(dimethylamino)ethyl]-2,3-dihydro-1,5-benzothiazepin-4(5H)-one]	–	–	–	coronary vasodilating activity (known) [2]: have a coronary vasodilating activity
2100 nM	CCN(C)CCN1C(=O)[C@H](OC(=O)c2ccc([N+](=O)[O-])cc2Cl)[C@H](c2ccc(OC)cc2)Sc2ccccc21 [(+)-cis-2-(4-methoxyphenyl)-3-(2-chloro-4-nitrobenzoyloxy)-5-[2-(N-methyl-N-ethylamino)ethyl]-2,3-dihydro-1,5-benzothiazepin-4(5H)-one oxalate]	–	–	–	–
2100 nM	CCN(CC)CCN1C(=O)[C@H](OC(=O)c2ccc([N+](=O)[O-])cc2Cl)[C@H](c2ccc(OC)cc2)Sc2ccccc21.Cl [(+)-cis-2-(4-methoxyphenyl)-3-(2-chloro-4-nitrobenzoyloxy)-5-[2-(diethylamino)ethyl]-2,3-dihydro-1,5-benzothiazepin-4(5H)-one hydrochloride]	–	–	+++ (the potency ratio is not less than 3)	–
2700 nM	COc1ccc([C@@H]2Sc3ccccc3N(CCN(C)C)C(=O)[C@@H]2OC(=O)c2ccc([N+](=O)[O-])c(OC)c2)cc1 [(+)-cis-2-(4-methoxyphenyl)-3-(3-methoxy-4-nitrobenzoyloxy)-5-[2-(dimethylamino)ethyl]-2,3-dihydro-1,5-benzothiazepin-4(5H)-one methanesulfonate]	–	–	–	–
2500 nM	COc1ccc([C@@H]2Sc3ccccc3N(CCN(C)C)C(=O)[C@@H]2OC(=O)c2ccc([N+](=O)[O-])c(C)c2)cc1.Cl [(+)-cis-2-(4-methoxyphenyl)-3-(3-methyl-4-nitrobenzoyloxy)-5-[2-(dimethylamino)ethyl]-2,3-dihydro-1,5-benzothiazepin-4(5H)-one hydrochloride]	++	+++ (the increase is not less than 0.5 ml/minute at a dose of not more than 10 μg/heart)	+++ (the potency ratio is not less than 3)	–
–	COc1ccc([C@@H]2Sc3ccccc3N(CCN(C)C)C(=O)[C@@H]2OC(=O)c2ccc(Cl)cc2[N+](=O)[O-])cc1.Cl [(+)-cis-2-(4-methoxyphenyl)-3-(4-chloro-2-nitrobenzoyloxy)-5-[2-(dimethylamino)ethyl]-2,3-dihydro-1,5-benzothiazepin-4(5H)-one hydrochloride]	–	+++ (the increase is not less than 0.5 ml/minute at a dose of not more than 10 μg/heart)	+++ (the potency ratio is not less than 3)	–
1400 nM	COc1ccc([C@@H]2Sc3ccccc3N(CCN(C)C)C(=O)[C@@H]2OC(=O)c2ccc(Cl)c([N+](=O)[O-])c2)cc1.O=C(O)C(=O)O [(+)-cis-2-(4-methoxyphenyl)-3-(4-chloro-3-nitrobenzoyloxy)-5-[2-(dimethylamino)ethyl]-2,3-dihydro-1,5-benzothiazepin-4(5H)-one oxalate]	–	–	+++ (the potency ratio is not less than 3)	–
–	COc1ccc(CCN(C)CCCC(C#N)(c2ccc(OC)c(OC)c2)C(C)C)cc1OC (stereo not shown) [verapamil, 5-[(3,4-dimethoxyphenethyl)methylamino]-2-(3,4-dimethoxyphenyl)-2-isopropylvaleronitrile]	–	–	–	effect on atrioventricular conduction (known) [5]: inhibits atrioventricular conduction to cause the prolongation of atrioventricular conduction time

Structure (SMILES)	IC50 (calmodulin)	Platelet aggregation-inhibiting activity (class) (platelet aggregation)	Coronary vasodilating activity (class) [1]	Cerebral vasodilating activity (potency ratio to papaverin, class) [3]	further results
COc1ccc([C@@H]2Sc3ccccc3N(CCN(C)C)C(=O)[C@@H]2OC(=O)c2ccc([N+](=O)[O-])cc2Cl)cc1.O=C(O)/C=C/C(=O)O [(+)-cis-2-(4-methoxyphenyl)-3-(2-chloro-4-nitrobenzoyloxy)-5-[2-(dimethylamino)ethyl]-2,3-dihydro-1,5-benzothiazepin-4(5H)-one fumarate]	2500 nM	++	+++ (the increase is not less than 0.5 ml/minute at a dose of not more than 10 μg/heart)	+++ (the potency ratio is not less than 3)	cerebral vasodilating activity, times stronger than that of papaverine ([3]; vertebral artery blood flow, anesthetized dogs, intraarterial): 4.5 times; total increase in vertebral blood flow (vertebral blood flow): 91 mL; coronary vasodilating activity, times stronger than that of papaverine ([1]; Langendorff method, isolated hearts of guinea pigs): 10 times; disturbance of atrioventricular conduction [4]: did not induce disturbance of atrioventricular conduction; recovery of electrocorticogram (ECoG) activity (cerebral ischemia): about 50%; LD50 (Acute toxicity, oral): > 2000 mg/kg
COc1ccc([C@@H]2Sc3ccccc3N(CCN(C)C)C(=O)[C@@H]2OC(=O)c2ccc([N+](=O)[O-])cc2)cc1.O=C(O)/C=C/C(=O)O [(+)-cis-2-(4-methoxyphenyl)-3-(4-nitrobenzoyloxy)-5-[2-(dimethylamino)ethyl]-2,3-dihydro-1,5-benzothiazepin-4(5H)-one fumarate]	4500 nM	++	+++ (the increase is not less than 0.5 ml/minute at a dose of not more than 10 μg/heart)	+++ (the potency ratio is not less than 3)	–
